{"source": "patent US12673959B2", "about": "“Polysubstituted imidazolo[4,5-c][1,2]thiazine derivative and use thereof” (KYUNGPOOK NATIONAL UNIVERSITY INDUSTRY-ACADEMIC COOPERATION …, priority 2020, dated 2026)", "test_system": "CLP-induced sepsis mouse model", "test": "Survival rate in cecal ligation and puncture (CLP)-induced sepsis mouse model", "format": "in vivo", "conditions": "ICR male mice; compound administered intravenously into tail 12 hours and 50 hours after surgery; FIG. 1", "description": "The anti-inflammatory efficacy of the prepared compound was tested by the survival rate of peritonitis-induced sepsis mouse model. CLP-induced sepsis mouse models were prepared by in vivo methods to verify anti-inflammatory activity, and the preparation method is a widely used experimental method [Wang H, Nat. Med., 2004, 10, 1216-1221]. Forty 6-week-old ICR male mice were divided into 10 mice in each group and the survival rate was observed.\nFirst, the male mice were given respiratory anesthesia using isoflurane, an incision of about 2 cm was made in the middle of the abdomen to take out the appendix adjacent to the intestine, a 5.0. mm portion from the tip of the appendix was ligated with a 3.0-silk suture and pierced once with a 22-gauge needle, and then the incision was closed again with a 4.0-silk suture. Sham mice were sutured without tying or piercing the appendix after incision, and the compound prepared 12 hours and 50 hours after surgery was administered intravenously into mouse tail."}
{"smiles": "CCN1c2nc(N3CCCC3)n(C)c2C(=O)C(c2ccc(Cl)cc2)S1(=O)=O", "note": "(stereo not shown) [Compound 1-42, 3-(4-chlorophenyl)-1-ethyl-5-methyl-6-(pyrrolidin-1-yl)-3,5-dihydroimidazo[4,5-c][1,2]thiazine-4(1H)-one 2,2-dioxide]", "values": [{"measurement": "survival rate of the CLP-induced sepsis mouse model increased compared to a group of which only CLP was performed", "result": 60, "unit": "%"}]}
